This assay has as its system LPS-activated tissue-factor (TF) activity in human monocytes. Kind of assay: Pro-coagulant activity of tissue factor (one-stage clotting time) in LPS-stimulated human monocytes. Type of assay: cell-based. As for the experimental part:
FIG. 2—The glycerophosphoinositols inhibit LPS-activated tissue-factor activity in human monocytes. Human monocytes were purified from peripheral blood of healthy donors and incubated at 37° C. for 20 min without or with different concentrations (from 50 μM to 300 μM) GroPIns or GroPIns4P, and for a further 5 h and 24 h in the absence and in presence of 0.1 μg/ml LPS from E. coli. […] Data are means (±SD) of three independent experiments performed with cells from different donors. Asterisks indicate statistically significant differences (*p=0.015; **p<0.005; ***p=0.0003) versus their respective controls. As shown, pro-coagulant activity was not detectable in untreated monocytes, and it was induced in a time-dependent manner by LPS stimulation.
The glycerophosphoinositol, differently from the PLA2IVα inhibitor, inhibits LPS-activated tissue-factor activity in human monocytes. Human monocytes were purified from peripheral blood of two healthy donors (experiment I and II) and pre-incubated at 37° C. for 20 min without (black line) or with 300 μM glycerophosphoinositol (GroPIns, blue line) or 0.5 μM PLA2IVα inhibitor (pyrrophenone, Pf, red line), and for a further 24 h in the absence or presence of increasing concentrations of LPS from E. coli (endotoxin).
The glycerophosphoinositol inhibits in a dose-dependent manner LPS-activated tissue-factor activity in human monocytes. Human monocytes were purified from peripheral blood of three healthy donors (experiments III, IV and V) and pre-incubated at 37° C. for 20 min without or with increasing concentrations of glycerophosphoinositol (GroPIns) and for a further 24 h in the absence or presence of 10 ng/ml of LPS from E. coli (endotoxin). […] The two insets in Exp IV and V show the pro-coagulant activity of tissue factor, assessed in cells stimulated by 10 ng/ml of endotoxin, with (filled bars) or without (dotted bars) 20 min pre-incubation at 37° C., in absence (Control) or in presence of 300 μM GroPIns.
The glycerophosphoinositols inhibit LPS-activated tissue-factor activity in human monocytes.
Human monocytes were obtained from whole blood collected from healthy donors (informed consent was obtained) and anticoagulated with 0.1 vol 3.8% sodium citrate/0.15 mol/l NaCl. The leukocytes were sedimented at 180×g for 15 min at 10° C. The sedimented cells were diluted to the initial volume with citrate-saline and sedimented again. This step was repeated to minimise platelet contamination. The cells were then layered onto Lymphoprep™, and centrifuged at 700×g for 20 min at 20° C. The ring of mononuclear cells was collected and sedimented at 620×g for 7 min at 8° C. The pellet was resuspended in citrate-saline and the cells were washed twice. Monocytes were purified using a discontinuous Percoll™ density gradient; the mononuclear cell preparation was resuspended in RPMI-1640 medium supplemented with 10% heat-inactivated foetal calf serum, and was layered onto a 46% isosmotic Percoll™ solution. After centrifugation at 20° C. for 30 min at 550×g, the cells at the RPMI-1640 medium/Percoll™ interface were collected and sedimented at 620×g. The pellet was resuspended in citrate-saline and the cells were washed twice. The final monocyte preparation was then resuspended in serum-free RPMI-1640 at the concentration required.
The pro-coagulant activity of tissue factor (TF activity) was measured in cell lysates according to one-stage clotting time [as reported in (Evangelista et al., Thromb Haemost. 2005; 94, 568-577)]. One hundred μl of cell lysates were added to 100 μl of 37° C. prewarmed normal human plasma. After 30 s, 100 μl 20 mM CaCl2 were added to the mixture and the clotting time was determined using a KC4A Amellung Coagulometer (Mascia Brunelli, Milan, Italy). The data were then converted in arbitrary units by interpolation with a standard curve generated with serial dilutions of human recombinant thromboplastin (Hemoliance, Instrumentation Laboratory).

Where [1] appears, read: 300 μM, endotoxin 10 ng/ml for 24 h (FIG. 12).

With `O=P(O)(O)O[C@@H]1[C@@H](O)[C@@H](O)[C@@H](OP(=O)(O)OCC(O)CO)[C@H](O)[C@H]1OP(=O)(O)O` (stereo partly drawn) [GroPIns4,5P2, glycerophosphoinositol 4,5-bisphosphate], under setting [1], the TF activity result is listed as “reduce TF activity” and the “efficacy in reducing TF activity compared with GroPIns” value is “higher efficacy than GroPIns”.
Take `O=C1NC(=O)/C(=C/c2ccc(C(=O)NC[C@@H]3C[C@@H](SC(c4ccccc4)(c4ccccc4)c4ccccc4)CN3C(=O)c3ccccc3C(=O)c3ccc(F)cc3F)cc2)S1` [pyrrophenone, reference compound]: the TF activity entry (0.5 μM, 20 min pre-incubation, increasing concentrations of endotoxin for 24 h (FIG. 10)) is listed as “does not significantly inhibit endotoxin effect on tissue-factor activity”.

Source of the values: patent publication US9351983B2, “Use of glycerophosphoinositols for the treatment of septic shock” (CONSIGLIO NAZIONALE DELLE RICERCHE, priority 2012, dated 2016).
